From article PMC6364417, “Kinase inhibitor library screening identifies synergistic drug combinations effective in sensitive and resistant melanoma cells” (Journal of Experimental & Clinical Cancer Research : CR, 2019)

Legend:
Test in all cases: Kinase inhibitor library screening, PrestoBlue cell viability, 1 or 10 μM, 72 h
501Mel cells (parental) = conditions: 501Mel Parental, in %; for Cell viability in kinase inhibitor library screening, 501Mel Parental, 1μΜ / Cell viability in kinase inhibitor library screening, 501Mel Parental, 10μΜ: 72 h
Protocol: (§1) After 72 h of treatment, cell viability was assessed using the PrestoBlue Cell Viability Reagent (ThermoFisher Scientific). Measurements were performed with the CLARIOstar Monochromator microplate reader (BMG Labtech).
(§2) Kinase inhibitor library screening. […] Each cell line was treated in its sensitive form (parental), and also as 2 resistant derivatives, which were made resistant to either Vemurafenib (XP) or Dabrafenib (GP). Drugs were added at 2 different concentrations, 1 and 10 μM, for 72 h and cell viability was assessed using the PrestoBlue Cell Viability assay. Results are depicted as % viability compared to untreated cells. Each cell line was analyzed at least in duplicate. […] (XLSX 95 kb)

[1] = system: 501Mel-GP cells (Dabrafenib-resistant); conditions: 501Mel GP, in %; for Cell viability in kinase inhibitor library screening, 501Mel GP, 1μΜ / Cell viability in kinase inhibitor library screening, 501Mel GP, 10μΜ / cell viability, 501Mel GP, 1μΜ / cell viability, 501Mel GP, 10μΜ: 72 h
Protocol: as §1, §2

[2] = system: 501Mel-XP cells (Vemurafenib-resistant); conditions: 501Mel XP, in %
Protocol: as §1, §2

A375 cells (parental) = conditions: A375 Parental
Protocol: as §1, §2

[3] = system: A375-GP cells (Dabrafenib-resistant); conditions: A375 GP
Protocol: as §1, §2

[4] = system: A375-XP cells (Vemurafenib-resistant); conditions: A375 XP
Protocol: as §1, §2

[5] = system: IGR37-GP cells (Dabrafenib-resistant); conditions: IGR37 GP
Protocol: as §1, §2

[6] = system: IGR37-XP cells (Vemurafenib-resistant); conditions: IGR37 XP; for Cell viability in kinase inhibitor library screening, IGR37 XP, 10μΜ / Cell viability in kinase inhibitor library screening, IGR37 XP, 1μΜ / cell viability, IGR37 XP, 10μΜ / cell viability, IGR37 XP, 1μΜ: 72 h; for Cell viability in kinase inhibitor library screening, IGR37 XP, 1μΜ / cell viability (kinase inhibitor library screening) / cell viability, IGR37 XP, 1μΜ: in %
Protocol: as §1, §2

IGR37 cells (parental) = conditions: IGR37 Parental, 72 h, in %
Protocol: as §1, §2

Row | SMILES | Cell viability in kinase inhibitor library screening, 501Mel Parental, 1μΜ (501Mel cells (parental); 1μΜ) | Cell viability in kinase inhibitor library screening, 501Mel Parental, 10μΜ (501Mel cells (parental)) | Cell viability in kinase inhibitor library screening, 501Mel GP, 1μΜ ([1]; 1μΜ) | Cell viability in kinase inhibitor library screening, 501Mel GP, 10μΜ ([1]; 10μΜ) | Cell viability in kinase inhibitor library screening, 501Mel XP, 1μΜ ([2]; 1μΜ, 72 h) | Cell viability in kinase inhibitor library screening, IGR37 GP, 10μΜ ([5]; 72 h) [%] | Cell viability in kinase inhibitor library screening, IGR37 XP, 10μΜ ([6]; 10μΜ) [%] | Cell viability in kinase inhibitor library screening, IGR37 XP, 1μΜ ([6]; 1μΜ) | cell viability, 501Mel GP, 1μΜ ([1]; 1μΜ) | cell viability, 501Mel GP, 10μΜ ([1]; 10μΜ) | cell viability, 501Mel XP, 1μΜ ([2]; 1μΜ, 72 h) | cell viability, 501Mel XP, 10μΜ ([2]; 10μΜ, 72 h) | cell viability, A375 Parental, 10μΜ (A375 cells (parental); 10μΜ, 72 h, in %) | cell viability, A375 GP, 1μΜ ([3]; 1μΜ, 72 h, in %) | cell viability, A375 XP, 1μΜ ([4]; 1μΜ, 72 h, in %) | cell viability, IGR37 Parental, 10μΜ (IGR37 cells (parental); 10μΜ) | cell viability, IGR37 GP, 10μΜ ([5]; 72 h) [%] | cell viability, IGR37 GP, 1μΜ ([5]; 1μΜ, 72 h, in %) | cell viability, IGR37 XP, 10μΜ ([6]; 10μΜ) [%] | cell viability, IGR37 XP, 1μΜ ([6]; 1μΜ) | further results
1 | O=c1c(O)c(-c2ccc(O)c(O)c2)oc2cc(O)cc(O)c12 [Quercetin (Sophoretin)] | 99.7 | 94.0 | 98.5 | 87.4 | 90.4 | 78.8 | 58.7 | 99.1 | – | – | – | – | – | – | – | – | – | – | – | – | Cell viability in kinase inhibitor library screening, 501Mel XP, 10μΜ ([2]; 10μΜ, 72 h): 65.0; Cell viability in kinase inhibitor library screening, A375 Parental, 10μΜ (A375 cells (parental); 10μΜ, 72 h): 94.2; Cell viability in kinase inhibitor library screening, A375 Parental, 1μΜ (A375 cells (parental); 1μΜ, 72 h): 97.7; Cell viability in kinase inhibitor library screening, A375 GP, 10μΜ ([3]; 10μΜ, 72 h): 87.9; Cell viability in kinase inhibitor library screening, A375 XP, 10μΜ ([4]; 10μΜ, 72 h): 96.9
2 | Cc1[nH]c(/C=C2\C(=O)Nc3ccccc32)c(C)c1CCC(=O)O [TSU-68] | – | – | – | – | – | – | – | – | – | – | – | – | – | – | – | – | – | – | – | – | cell viability (kinase inhibitor library screening) (501Mel cells (parental); 1μΜ): 103.3; cell viability (kinase inhibitor library screening) ([1]; 1μΜ): 108.8; cell viability (kinase inhibitor library screening) ([1]; 10μΜ): 99.1; cell viability (kinase inhibitor library screening) ([2]; 1μΜ): 99.9; cell viability (kinase inhibitor library screening) ([2]; 10μΜ): 80.9; cell viability (kinase inhibitor library screening) (A375 cells (parental); 1μΜ, in %): 114.1; cell viability (kinase inhibitor library screening) (A375 cells (parental); 10μΜ, in %): 107.4; cell viability (kinase inhibitor library screening) ([3]; 1μΜ, in %): 113.8; cell viability (kinase inhibitor library screening) ([3]; 10μΜ, in %): 94.6; cell viability (kinase inhibitor library screening) ([4]; 1μΜ, in %): 108.6; cell viability (kinase inhibitor library screening) ([4]; 10μΜ, in %): 103.8; cell viability (kinase inhibitor library screening) ([5]; 1μΜ, in %): 97.4; cell viability (kinase inhibitor library screening) ([6]; 1μΜ): 95.2; cell viability (kinase inhibitor library screening) ([6]; 10μΜ): 76.8
3 | C[C@@H]1CCN(C(=O)CC#N)C[C@@H]1N(C)c1ncnc2[nH]ccc12 [Tofacitinib (CP-690550, Tasocitinib)] | – | – | – | – | – | – | – | – | 104.8 | 94.8 | 94.3 | 92.6 | 97.3 | 103.9 | 103.8 | 104.5 | 95.3 | 97.9 | 71.2 | 96.7 | cell viability, A375 Parental, 1μΜ (A375 cells (parental); 1μΜ, 72 h, in %): 104.5; cell viability, A375 GP, 10μΜ ([3]; 10μΜ, 72 h, in %): 97.7; cell viability, A375 XP, 10μΜ ([4]; 10μΜ, 72 h, in %): 103.6; cell viability, IGR37 Parental, 1μΜ (IGR37 cells (parental); 1μΜ): 108.6
4 | C[C@@H]1CCN(C(=O)CC#N)C[C@@H]1N(C)c1ncnc2[nH]ccc12.O=C(O)CC(O)(CC(=O)O)C(=O)O [Tofacitinib citrate (CP-690550 citrate)] | – | – | – | – | – | – | – | – | 103.5 | 93.7 | 94.0 | 90.7 | 93.7 | 103.6 | 103.3 | 107.1 | 94.9 | 98.3 | 83.2 | 104.3 | –
5 | O=C(O)c1ccc2c(c1)nc(Nc1cccc(Cl)c1)c1ccncc12 [cx-4945 (Silmitasertib)] | 96.6 | 52.6 | 93.9 | 31.8 | 88.6 | 55.9 | 23.6 | 96.8 | – | – | – | – | – | – | – | – | – | – | – | – | Cell viability in kinase inhibitor library screening, A375 GP, 1μΜ ([3]; 1μΜ, 72 h): 93.2; Cell viability in kinase inhibitor library screening, IGR37 Parental, 10μΜ (IGR37 cells (parental); 10μΜ): 86.7; Cell viability in kinase inhibitor library screening, IGR37 GP, 1μΜ ([5]; 1μΜ, 72 h, in %): 94.1
